Values of other authors as cited in article PMC4646457 (PLoS ONE, 2015).

Conditions: refractory advanced or metastatic breast cancer; ref ZM2006/00137/00 (EGF100151); cited from earlier work

CCCCCOC(=O)Nc1nc(=O)n([C@@H]2O[C@H](C)[C@@H](O)[C@H]2O)cc1F [capecitabine]
median time to progression: 18.6 weeks
